Here are results for one substance from US20220202912A1, “Polypeptides in Preparation of Drugs for Treatment or Prevention of Rheumatoid Arthritis” (priority 2011, published 2022).

In one assay the test system is CIA mouse models. In words: collagen-induced arthritis (CIA) mouse models. It is filed as in vivo, DBA/1 mice. As to conditions: for clinical scoring / swelling of joints / swelling of paws: 5 times.
A further assay has as its system IL-1β. Description: IL-1β production by mouse peritoneal macrophages (LPS, ELISA). As to conditions: LPS 5 μg/mL, 48 h. It counts as cell-based, C57BL/6 mice. As for the experimental part:
In the test, mice are divided into […], namely a blank control group, a lipopolysaccharide (LPS) model group, a dexamethasone group, and mPEG-SC20k-HM-3 groups at different doses (0.56, 1.12, 2.25, 4.50, 9.00 μmol/L).
(1) IL-1 production: mice are intraperitoneally injected with 1 mL of broth medium (containing 6% of starch). After three days, mouse peritoneal macrophages are taken aseptically and washed twice with RPMI 1640 medium, and the cell concentration is adjusted to 2×10^6 cells/mL. The cells are injected into a 24-well culture plate, 1 mL per well, and the cells are incubated in a cell incubator for 3 h, and vibrated once every 30 min to make the cells fully adhere. Then the cells are washed twice with culture solution to remove non-adherent cells, are cultured continuously for 48 h after administration, and are centrifuged at 1000 r for 15 min. The supernatant is collected as a sample with IL-1β to be tested. (2) Determination of IL-1 content: various solutions are prepared; tested samples and standard substances with different concentrations (100 μL/well) are added into the corresponding wells, reaction wells are sealed with plate-sealing adhesive tape, and incubation is performed at 37° C. for 90 min; the plate is washed four times; biotinylated antibody working solution (100 μL/well) is added, the reaction wells are sealed with plate-sealing adhesive tape, and incubation is performed at 37° C. for 60 min; the plate is washed four times; enzyme conjugate working solution (100 μL/well) is added, the reaction wells are sealed with plate-sealing adhesive tape, and incubation is performed at 37° C. for 30 min; the plate is washed four times; chromogenic reagent (100 μL/well) is added, and incubation is performed at 37° C. for 10-20 min in the absence of light; stop solution (100 μL/well) is added, and the OD 450 nm absorbance is measured immediately after uniform mixing (within 5 min).

[1] abbreviates: high dose 40 mg/kg once the other day.
Where [2] appears, read: low dose 10 mg/kg once the other day.
[3] abbreviates: medium dose 20 mg/kg once the other day.

Where no end group is shown, it is not given here.

As to “mPEG-SC20k-Ile-Val-Arg-Arg-Ala-Asp-Arg-Ala-Ala-Val-Pro-Gly-Gly-Gly-Gly-Arg-Gly-Asp ({mPEG‑SC 20k}-IVRRADRAAVPGGGGRGD) [polypeptide III, No. 3]”, the clinical scoring in the assay with CIA mouse models (setting [1]) was 2.00 ± 2.37; with CIA mouse models (setting [2]), 4.83 ± 2.99; in the assay on CIA mouse models (setting [3]), 6.33 ± 4.23. The values for the swelling of joints in the assay with CIA mouse models (setting [1]), in the assay on CIA mouse models (setting [2]) and in the assay on CIA mouse models (setting [3]) were 0.07 mm, 0.23 mm and 0.12 mm, respectively. The swelling of paws with CIA mouse models (setting [1]) is recorded as 0.14 ± 0.42 mm; in the assay on CIA mouse models (setting [2]), 0.37 ± 0.35 mm; in the assay with CIA mouse models (setting [3]), 0.34 ± 0.42 mm. In addition, the “therapeutic effect on collagen-induced arthritis in mice (conclusion)” value in the assay with CIA mouse models (mouse, in vivo) was “CONCLUSION: polypeptide III has therapeutic effect on collagen-induced arthritis in mice”. The IL-1β content in the assay on IL-1β (0.56 μmoL/L) is reported as 89.77 ± 7.22 pg/mL; with IL-1β (1.12 μmoL/L), 35.17 ± 17.71 pg/mL; in the assay with IL-1β (2.25 μmoL/L), 43.78 ± 10.16 pg/mL; with IL-1β (4.50 μmoL/L) it was 32.04 ± 6.52 pg/mL; with IL-1β (9.00 μmoL/L), 104.83 ± 2.44 pg/mL. The Inhibition rate worked out at 90.93% with IL-1β (0.56 μmoL/L); 96.45% in the assay with IL-1β (1.12 μmoL/L); 95.58% with IL-1β (2.25 μmoL/L); 96.76% in the assay with IL-1β (4.50 μmoL/L); 89.41% in the assay with IL-1β (9.00 μmoL/L).
